According to patent US20180094250A1, “Methods And Compositions For PCR” (Life Technologies Coroporation, priority 2007, published 2018):

Key:
Assay type in all cases: biochemical
cDNA (human) = assay: PCR Residual Activity Assay with three primer sets, agarose gel; details: preincubation 25° C. for 60 min, 40 cycles
Experimental: Under these conditions, if hot-start techniques were not employed, primer dimers tend to form in the PCR reaction mix.
This example includes reactions which is referred to as PCR Residual Activity Assay that involved three set of primers respectively. The primer sets are commercially available from Applied Biosystems, Foster City, Calif. Specifically, Set 1 is Hs00378363_g1; Set 2, Hs00399572_m1 and Set 3, Hs00372859_m1.
The components are listed below:
50 Unit/ml DNA polymerase
and 0.8 ng/μl cDNA (human)
Due to the needs of the individual polymerases, 1× buffer and 1×MgCl2 are different as stated below:
The cycling conditions for ECA001 are listed below:
The cycling conditions for ECA001-Gold:
The cycling conditions for AmpliTaq:
The cycling conditions for AmpliTaq Gold:
Each reaction was run in duplication.

[1] = exonuclease to polymerase activity ratio after modification and re-activation; details: 5′-3′ exonuclease activity
Excerpt: (See details in Example 5)
It is true that lysine is a common amino acid that can be found in many enzymes.

[2] = polymerase activity at room temperature relative to peak activity
Excerpt: Pol B DNA polymerases enzymes have relative low polymerase activity at room temperature, while Taq DNA polymerase still retains >5% of its peak activity (FIG. 4).

AmpliTaq Gold: commercial hot-start modified Taq polymerase used as comparator
non-specific/primer-dimer products versus specific products (cDNA (human)): mostly the specific products

AmpliTaq: AmpliTaq DNA polymerase
non-specific/primer-dimer products versus specific products (cDNA (human)): mostly non-specific/primer-dimer products
exonuclease to polymerase activity ratio [1]: has been changed

Taq DNA polymerase: Thermus aquaticus Pol I (Taq DNA polymerase)
polymerase activity retained, of its peak activity [2]: > 5%
